IC50 data for 15 compounds are collected here from patent USRE46792E1, “Oxazole compound and pharmaceutical composition” (Otsuka Pharmaceutical Co., Ltd., priority 2005, dated 2018).

human PDE4D3 (PDE4D), sequence (Q08499 other isoform, or with tags, fused parts or gaps): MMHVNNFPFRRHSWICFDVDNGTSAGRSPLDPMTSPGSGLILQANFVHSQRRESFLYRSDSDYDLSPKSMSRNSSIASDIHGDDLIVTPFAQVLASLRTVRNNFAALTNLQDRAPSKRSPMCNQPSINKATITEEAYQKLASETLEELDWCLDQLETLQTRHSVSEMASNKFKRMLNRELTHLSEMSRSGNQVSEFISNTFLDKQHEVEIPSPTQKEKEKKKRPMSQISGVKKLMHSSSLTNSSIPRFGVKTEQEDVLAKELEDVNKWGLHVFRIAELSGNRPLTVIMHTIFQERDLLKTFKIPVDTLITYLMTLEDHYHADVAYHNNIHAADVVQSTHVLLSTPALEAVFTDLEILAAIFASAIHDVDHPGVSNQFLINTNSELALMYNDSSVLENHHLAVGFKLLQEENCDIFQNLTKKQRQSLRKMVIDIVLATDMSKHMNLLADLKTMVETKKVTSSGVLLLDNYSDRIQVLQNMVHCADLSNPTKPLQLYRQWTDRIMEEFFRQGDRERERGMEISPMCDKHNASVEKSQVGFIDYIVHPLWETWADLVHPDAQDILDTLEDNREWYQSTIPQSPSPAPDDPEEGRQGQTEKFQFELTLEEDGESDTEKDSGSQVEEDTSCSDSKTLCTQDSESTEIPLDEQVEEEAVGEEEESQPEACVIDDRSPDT

The target in the assay is human PDE4D3 (PDE4D) (Homo sapiens (Human), UniProt Q08499). Nature of the assay: Phosphodiesterase (PDE)4 inhibitory activity evaluation test ([3H]cAMP hydrolysis by PDE4D enzyme solution). It counts as biochemical. As to conditions: recombinant human PDE4D3 expressed in COS-7 cells; [3H]cAMP substrate; 10 min at 30° C.; 2% DMSO. The source says:
Phosphodiesterase (PDE)4 Inhibitory Activity Evaluation Test
(1) Large Scale Plasmid Preparation
Plasmid containing genes (HPDE4D) coding for human PDE4D3 cDNA (stored in Otsuka America Pharmaceutical, Inc., Maryland Research Laboratories) was transformed in E. coli, cultured on a large scale, and purified using an EndoFree™ Plasmid Maxi Kit (Qiagen).
(2) Abundant Expression and Purification of PDE4D
COS-7 cells derived from African green monkey kidneys were passage cultured in D-MEM media containing 100 units/ml penicillin, 100 μg/ml streptomycin, and 10% FBS. The cells were transfected with the plasmid prepared in (1) above using Lipofectamine™ 2000 (hereinafter referred to as “LF2000”, Invitrogen), following the manufacturer's protocol. The COS-7 cells were inoculated in a 10 cm culture dish on the previous day so as to be 90% confluent on the day of transfection. Culture dishes each containing a plasmid solution (solution A) in which 24 μg of plasmid was diluted in 1.5 ml Opti-MEM I Reduced Serum Medium (Invitrogen) and an LF2000 solution (solution B) in which 60 μl of LF2000 was diluted in 1.5 ml Opti-MEM I Reduced Serum Medium were separately allowed to stand for 5 minutes at room temperature. Solutions A and B were then mixed and the mixture was allowed to stand for 20 minutes at room temperature. The mixture was added to the cultured cells, and incubated at 37° C. (5% CO2) overnight. On the following day, the medium was replaced, and the mixture was further incubated overnight to harvest the cells in the following manner. The cells were washed with PBS (Sigma) once, and 10 ml of a Trypsin-EDTA solution (Sigma) was added to each culture dish. After the solution was distributed to each of the culture dishes, the cells were detached, and the dishes were allowed to stand for about 5 minutes at 37° C. The detached cells from the dishes were suspended in media, collected into centrifuge tubes, and centrifuged at 1200 rpm for 5 minutes at 4° C., and supernatants were removed. The cells were further washed with PBS, and stored at −80° C. KHEM buffer (100 mM Hepes, 50 mM KCl, 10 mM EGTA, 1.92 mM MgCl2, pH 7.4) containing 1 mM DTT, 1 μg/ml antipain, 1 μg/ml aprotinin, 1 μg/ml leupeptin, 1 μg/ml pepstatin A, 157 μg/ml benzamidine, and 120 μg/ml Pefabloc SC was added to the stored cells, and the contents were moved to a glass homogenizer to be homogenized on ice. The cell suspension was centrifuged at 1000 rpm for 5 minutes at 4° C., and the supernatant was further centrifuged at 14000 rpm for one hour. After centrifugation, the supernatant was dispensed into new tubes as PDE4D enzyme solutions, and stored in a deep freezer.
(3) Determination on Dilution Ratio of PDE4D Enzyme Solutions
The PDE4D enzyme solutions prepared in (2) above were dissolved in 20 mM Tris-HCl solution (pH 7.4) to give 10-, 25-, 50-, 100-, 200-, 400-, and 800-fold dilutions of the enzyme solutions. PDE4D activities were measured according to (4) below. The percentage of catalyzed cAMP to total cAMP was calculated, and such a dilution, in which the percentage was between 10% and 30%, was adopted in the inhibitory study below.
(4) Measurement of PDE4D Inhibitory Activity
Necessary amounts of test compounds were weighed, and 100% dimethylsulfoxide (DMSO) was added thereto to adjust the concentration to 10 mM. The solutions were stored in a freezer as stock solutions of each test compound. After being thawed when required, the solutions were diluted 20-fold with 100% DMSO to give a 500 μM concentration. Further, 10-fold serial dilutions were made with 100% DMSO to prepare test compounds of different concentrations. 2 μl of solutions containing one of each of the test compound were separately added into 1.2 ml tubes in which 23 μl of 20 mM Tris-HCl (pH 7.4) had been placed beforehand. […]
Regarding `C=CCOc1cc(-c2nc(CCC(=O)c3ccccc3OCC)co2)ccc1OC` [Example 104, 3-[2-(3-allyloxy-4-methoxyphenyl)oxazol-4-yl]-1-(2-ethoxyphenyl)propan-1-one], the IC50 is under 50 nM. The result for `C=CCCOc1cc(-c2nc(CCC(=O)c3ccccc3OCC)co2)ccc1OC` [Example 108, 3-[2-(3-(3-butenyloxy)-4-methoxyphenyl)oxazol-4-yl]-1-(2-ethoxyphenyl)propan-1-one] reads under 50 nM; that for `CCOc1ccccc1C(=O)CCc1coc(-c2ccc(OC)c(OC(C)C)c2)n1` [Example 111, 1-(2-ethoxyphenyl)-3-[2-(3-isopropoxy-4-methoxyphenyl)oxazol-4-yl]propan-1-one], under 50 nM; that for `CCOc1ccccc1C(=O)CCc1coc(-c2ccc(OC)c(OCC(F)(F)F)c2)n1` [Example 112, 1-(2-ethoxyphenyl)-3-{2-[4-methoxy-3-(2,2,2-trifluoroethoxy)phenyl]oxazol-4-yl}propan-1-one], under 50 nM. Under `CCOc1ccccc1C(=O)CCc1coc(-c2ccc(OC)c(OCC3CCC3)c2)n1` [Example 116, 3-[2-(3-cyclobutylmethoxy-4-methoxyphenyl)oxazol-4-yl]-1-(2-ethoxyphenyl)propan-1-one] stands under 50 nM. As to `COc1ccc(-c2nc(CCC(=O)c3ncccc3OC)co2)cc1OCC(F)(F)F` [Example 129, 1-(3-methoxypyridin-2-yl)-3-{2-[4-methoxy-3-(2,2,2-trifluoroethoxy)phenyl]oxazol-4-yl}propan-1-one], the IC50 was under 50 nM. The result for `CCOc1cccnc1C(=O)CCc1coc(-c2ccc(OC)c(OC3CCCC3)c2)n1` [Example 132, 3-[2-(3-cyclopentyloxy-4-methoxyphenyl)oxazol-4-yl]-1-(3-ethoxypyridin-2-yl)propan-1-one] reads under 50 nM; that for `CCOc1cccnc1C(=O)CCc1coc(-c2ccc(OC)c(OCC3CC3)c2)n1` [Example 133, 3-[2-(3-cyclopropylmethoxy-4-methoxyphenyl)oxazol-4-yl]-1-(3-ethoxypyridin-2-yl)propan-1-one], under 50 nM; that for `COc1ccc(-c2nc(CCC(=O)c3ncccc3C)co2)cc1OCC1CC1` [Example 137, 3-[2-(3-cyclopropylmethoxy-4-methoxyphenyl)oxazol-4-yl]-1-(3-methylpyridin-2-yl)propan-1-one], under 50 nM.

Turning to `CCOc1cc(-c2nc(CCC(=O)c3ncccc3C)co2)ccc1OC` [Example 138, 3-[2-(3-ethoxy-4-methoxyphenyl)oxazol-4-yl]-1-(3-methylpyridin-2-yl)propan-1-one], the IC50 was under 50 nM. The result for `COc1ccc(-c2nc(CCC(=O)c3ncccc3C)co2)cc1OC(C)C` [Example 139, 3-[2-(3-isopropoxy-4-methoxyphenyl)oxazol-4-yl]-1-(3-methylpyridin-2-yl)propan-1-one] reads under 50 nM. The result for `C=CCOc1cc(-c2nc(CCC(=O)c3ncccc3C)co2)ccc1OC` [Example 140, 3-[2-(3-allyloxy-4-methoxyphenyl)oxazol-4-yl]-1-(3-methylpyridin-2-yl)propan-1-one] reads under 50 nM; that for `COc1ccc(-c2nc(CCC(=O)c3ncccc3C)co2)cc1OCC1CCC1` [Example 141, 3-[2-(3-cyclobutylmethoxy-4-methoxyphenyl)oxazol-4-yl]-1-(3-methylpyridin-2-yl)propan-1-one], under 50 nM. Take `CCCOc1cc(-c2nc(CCC(=O)c3ncccc3C)co2)ccc1OC` [Example 143, 3-[2-(4-methoxy-3-propoxyphenyl)oxazol-4-yl]-1-(3-methylpyridin-2-yl)propan-1-one]: the IC50 is under 50 nM. For `C=CCCOc1cc(-c2nc(CCC(=O)c3ncccc3C)co2)ccc1OC` [Example 146, 3-[2-(3-(3-butenyloxy)-4-methoxyphenyl)oxazol-4-yl]-1-(3-methylpyridin-2-yl)propan-1-one], the IC50 was under 50 nM.

What is called IC50 is the midpoint of a concentration-inhibition curve.
